# Test system: CT-3 xenograft tumors (primary human colon tumor)
# Experiment: CT-3 human colon tumor xenograft, combination with 5-fluorouracil (Example 2)
# Type: in vivo, mice
# Details: 5-fluorouracil alone, single dose 30 mg/kg/inj IV Day 15; study terminated Day 34
# Text: Two hundred eighteen (218) female SCID beige (C.B.-17/IcrHsd-Prkcd Lyst Skid Beige) mice (Harlan Sprague Dawley, Madison, Wis.) were started on the study at six to seven weeks of age. Animals were acclimated to the laboratory for at least two days prior to implantation of the tumor. Housing was in ventilated cage racks, and food and water were allowed ad libitum.
# CT-3 tumor fragments from a primary human colon tumor were originally obtained from Sera Care, Inc (Oceanside, Calif.) (sent by Peter Chu, Biogen Idec, San Diego). A serially transplanted in-vivo xenograft line was established at Biogen Idec, Inc. and fragments from the third xenograft generation were cryopreserved. […]
# On Day −1, the mice were implanted with BioMedics animal ID chips (Model IMI-1000; Seaford, Del.) SC on the left flank. […] Tumor size and body weight measurements were recorded at least twice weekly beginning on […]. When the tumors measured a minimum of 100 mg (Day 15), mice were randomized to treatment and control groups (see Table 2) based on tumor size and excluding tumors with non-progressive growth. […]
# Tumor measurements were determined using digital calipers. Body weights and tumor size measurements were recorded on Day 6 and were continued twice weekly until the termination of the study. […]
smiles,measurement,value
O=c1[nH]cc(F)c(=O)[nH]1 [5-fluorouracil],inhibition of tumor growth (change in tumor weight),significantly inhibited tumor growth throughout the study

# — US20100330081A1, “CRIPTO BINDING MOLECULES” (priority 2007, published 2010)
